The source of these data is PMC6522510 (Nature Communications, 2019).

pEC50: −log10 of the molar value.

Common to all, as to assay: cells
What all share (design): species or system AML cell lines (8); Secondary HTS, 10-point dose-response in triplicate, Cell Titer Glo viability, four-parameter fit EC50
(In ATP-based viability assays light output follows the ATP content of the culture.)

The test system of one test is MOLM-13. As to conditions: Homo sapiens, MOLM-13, 72 h, read-out: MOLM-13.
The test system of the next test is MV4-11. Conditions: Homo sapiens, MV4-11, 72 h, read-out: MV4-11.
The test system of the next test is CHRF288-11. Conditions: 72 h, read-out: CHRF288-11.
For the next test, the system named is CMK. Conditions: Homo sapiens, CMK, 72 h, read-out: CMK.
The subject of another test is CMS. As to conditions: 72 h, read-out: CMS.
The next test concerns M07e. As to conditions: M-07e, 72 h, read-out: M07e.
The test system of a further test is ML-2. Conditions: Homo sapiens, ML-2, 72 h, read-out: ML-2.
In another test the test system is U937. As to conditions: Homo sapiens, U-937, 72 h, read-out: U937.

`Cc1ccc(Nc2nccc(N(C)c3ccc4c(C)n(C)nc4c3)n2)cc1S(N)(=O)=O` [PAZOPANIB]: the pEC50 with MOLM-13, in the test with MV4-11, with CHRF288-11, in the test with CMK, in the test on CMS and in the test on M07e was less than 5.00 in each case. The pEC50 in the test on ML-2 and with U937 was less than 5.00 in each case.

Take `OC[C@H]1O[C@@H](n2cnc3c2NC=NC[C@H]3O)C[C@@H]1O` [PENTOSTATIN]: the pEC50 in the test on MOLM-13, with MV4-11, in the test on CHRF288-11, in the test with CMK, in the test with CMS and in the test with M07e was less than 5.00 in each case. Moreover, the pEC50 in the test on ML-2 and in the test on U937 was less than 5.00 in each case.

With `CCCCCCCCCCCCCCCCCCOP(=O)([O-])OC1CC[N+](C)(C)CC1` [PERIFOSINE], the pEC50 in the test on MOLM-13, in the test on MV4-11, in the test with CHRF288-11, with CMK, in the test with CMS and in the test on M07e was less than 5.00 throughout. Besides, the pEC50 in the test on ML-2 and with U937 was less than 5.00 throughout.

Take `CCCC(=O)OCOC(=O)C(C)(C)C` [PIVANEX]: the pEC50 in the test on MOLM-13, in the test with MV4-11, in the test with CHRF288-11, in the test on CMK, in the test on CMS and in the test with M07e was less than 5.00 in each case. Moreover, the pEC50 in the test with ML-2 and in the test with U937 was less than 5.00 in each case.

On to `CC(C)(C(=O)NCC(F)(F)C(F)(F)F)C(=O)N[C@@H]1C(=O)Nc2ccccc2-c2ccccc21` [RO-4929097], for which the pEC50 in the test on MOLM-13, with MV4-11, in the test on CHRF288-11, in the test on CMK, in the test on CMS and in the test on M07e was less than 5.00 each time. In addition, the pEC50 in the test on ML-2 and in the test on U937 was less than 5.00 throughout.

`CC(C)c1nc(N(C)S(C)(=O)=O)nc(-c2ccc(F)cc2)c1/C=C/[C@@H](O)C[C@@H](O)CC(=O)O` [ROSUVASTATIN]: the pEC50 in the test with MOLM-13, in the test with MV4-11, in the test on CHRF288-11, with CMK, in the test on CMS and in the test with M07e was less than 5.00 each time. For the same compound, the pEC50 with ML-2 and with U937 was less than 5.00 throughout.

Consider `CNCc1ccc(-c2[nH]c3cc(F)cc4c3c2CCNC4=O)cc1` [RUCAPARIB], for which the pEC50 in the test on MOLM-13, in the test with MV4-11, with CHRF288-11, with CMK, in the test with CMS and in the test on M07e was less than 5.00 throughout. Besides, the pEC50 in the test on ML-2 and with U937 was less than 5.00 throughout.

With `CC(C)=CCC/C(C)=C/CC/C(C)=C/CSc1ccccc1C(=O)O` [SALIRASIB], the pEC50 with MOLM-13, with MV4-11, with CHRF288-11, in the test with CMK, in the test with CMS and with M07e was less than 5.00 throughout. Further, the pEC50 in the test on ML-2 and in the test with U937 was less than 5.00 each time.

Take `CCn1c(=O)c(-c2cc[nH]n2)cc2c(C)nc(N)nc21` [SAR245409]: the pEC50 in the test with MOLM-13, in the test with MV4-11, in the test with CHRF288-11, in the test on CMK, in the test with CMS and in the test with M07e was less than 5.00 throughout. Further, the pEC50 in the test on ML-2 and in the test with U937 was less than 5.00 each time.

Consider `NC(=O)c1ccc(-c2nc(-c3ccc4c(c3)OCO4)c(-c3ccccn3)[nH]2)cc1` [SB-431542], for which the pEC50 in the test with MOLM-13, with MV4-11, in the test on CHRF288-11, with CMK, in the test on CMS and in the test on M07e was less than 5.00 throughout. Besides, the pEC50 in the test on ML-2 and with U937 was less than 5.00 each time.

On to `Nc1ncnc2c1ncn2[C@@H]1O[C@H](C[C@@H](N)CC[C@H](N)C(=O)O)[C@@H](O)[C@H]1O` [SINEFUNGIN], for which the pEC50 with MOLM-13, with MV4-11, with CHRF288-11, in the test with CMK, with CMS and in the test on M07e was less than 5.00 throughout. Also, the pEC50 in the test on ML-2 and in the test with U937 was less than 5.00 in each case.

For the compound `O=C1NC(=O)/C(=C/c2cccc(C(F)(F)F)c2)S1` [SJ000006739, SMI-4A], the pEC50 in the test on MOLM-13, with MV4-11, with CHRF288-11, in the test with CMK, in the test on CMS and with M07e was less than 5.00 each time. Besides, the pEC50 in the test with ML-2 and in the test with U937 was less than 5.00 in each case.

For the compound `CCOC(=O)c1cc2ccccc2nc1C` [SJ000025189, MC-1626], the pEC50 in the test with MOLM-13, with MV4-11, with CHRF288-11, with CMK, with CMS and in the test on M07e was less than 5.00 in each case. For the same compound, the pEC50 with ML-2 and in the test on U937 was less than 5.00 each time.

As to `Cc1ccc(S(=O)(=O)n2c(N)nc3ccccc32)cc1` [SJ000042554, NODINITIB-1], the pEC50 in the test on MOLM-13, in the test on MV4-11, in the test on CHRF288-11, in the test on CMK, with CMS and with M07e was less than 5.00 each time. The pEC50 in the test with ML-2 and with U937 was less than 5.00 in each case.

As for `O=C(c1ccc(Cl)cc1Cl)n1nnc2ccccc21` [SJ000142379, ITSA1], the pEC50 with MOLM-13 was 5.28; in the test with MV4-11, less than 5.00; in the test with CHRF288-11, 5.21; in the test on CMK it was less than 5.00; with CMS it was less than 5.00; in the test with M07e it was less than 5.00. In addition, the pEC50 in the test with ML-2 is 5.21; with U937, less than 5.00.

For `Nc1ncn([C@@H]2O[C@H](CO)[C@@H](O)[C@H]2O)c(=O)n1` [SJ000285227, 5-AZACYTIDINE], the pEC50 in the test with MOLM-13 is 5.35; with MV4-11 it was less than 5.00; with CHRF288-11, less than 5.00; with CMK it was 5.10; in the test with CMS it was 5.17; in the test with M07e, less than 5.00. The pEC50 in the test on ML-2 and in the test with U937 was less than 5.00 throughout.

In the case of `CC(C)(C)c1ccc(S(=O)(=O)/C=C/C#N)cc1` [SJ000287676, BAY 11-7085], the pEC50 with MOLM-13 was 5.82; with MV4-11 it was 5.85; in the test with CHRF288-11 it was 5.85; in the test on CMK, 5.41; in the test with CMS, 5.51; with M07e, 5.49. The pEC50 in the test on ML-2 was 6.00; with U937 it was 6.03.

In the case of `O=C1Nc2ccc(I)cc2/C1=C/c1cc(Br)c(O)c(Br)c1` [SJ000287883, GW 5074], the pEC50 in the test on MOLM-13, with MV4-11, in the test with CHRF288-11, in the test on CMK, in the test with CMS and with M07e was less than 5.00 each time. Besides, the pEC50 in the test with ML-2 and in the test with U937 was less than 5.00 throughout.

Take `O=c1[nH]c2ccccc2c2ccccc12` [SJ000288131, 6(5H)-PHENANTHRIDINONE]: the pEC50 in the test on MOLM-13 is 5.70; in the test with MV4-11, less than 5.00; in the test with CHRF288-11 it was 5.64; with CMK it was less than 5.00; in the test with CMS it was less than 5.00; in the test with M07e, less than 5.00. Moreover, the results for the pEC50 in the test with ML-2 and in the test on U937 were 5.57 and less than 5.00, respectively.

`COc1cccc(-c2cc(=O)c3ccccc3o2)c1N` [SJ000288145, PD 98059]: the pEC50 in the test with MOLM-13, in the test on MV4-11, with CHRF288-11, with CMK, in the test on CMS and with M07e was less than 5.00 in each case. Moreover, the pEC50 in the test with ML-2 and in the test on U937 was less than 5.00 each time.

Take `N#CC(=C(/N)Sc1ccccc1N)/C(C#N)=C(\N)Sc1ccccc1N` [SJ000288250, U0126]: the pEC50 with MOLM-13, with MV4-11, with CHRF288-11, with CMK, in the test with CMS and in the test with M07e was less than 5.00 each time. Moreover, the pEC50 in the test on ML-2 and in the test on U937 was less than 5.00 each time.

Turning to `CCc1c2c(nc3ccc(O)cc13)-c1cc3c(c(=O)n1C2)COC(=O)[C@]3(O)CC` [SJ000311679, SN-38], the pEC50 in the test with MOLM-13 was 8.25; with MV4-11, 6.62; in the test on CHRF288-11 it was 8.02; in the test with CMK it was 7.63; with CMS it was less than 5.00; in the test on M07e, 7.35. In addition, the pEC50 in the test with ML-2 was 8.60; in the test with U937, 7.43.
